We go through two molecules from US20040167092A1, “Medicaments” (priority 2001, published 2004).

Common to all, as to type: in vivo
One assay has as its system radiation-induced emesis. Briefly: Radiation-induced (X-irradiation) emesis in the conscious ferret. The following applies: for effect on radiation-induced emesis (in words): s.c. immediately after X-irradiation, conscious ferret; for anti-emetic effect with DPCPX, animals affected (in words): two animals. An excerpt:
The effects of a number of A1 agonists (including N-(3-fluoro4-hydroxy-phenyl)-5′-O-methyl-adenosine and N-(4-hydroxy-phenyl)-5′-O-methyl-adenosine) and an antagonist, 1,3-dipropyl-8-cyclopentylxanthine (DPCPX), were investigated for anti-emetic action against radiaton-induced emesis in the conscious ferret. In addition DPCPX was used in an attempt to block the anti- emetic effects of the partial agonist, N-(3-fluoro-4hydroxy-phenyl)-5′-O-methyl-adenosine, the structure of which is indicated below. [drawing 4]
For all the experiments. adult male ferrets, body weight range 1-1.5 kg, were used. Emesis was induced by X-irradiation, morphine and cisplatin.
The ferrets were weighed on the day before the experiment. On the day of the experiment each ferret received 2Gy (200 Rad) whole body X-irradiation, administered over a 5 minute period. The A1 receptor agonists, partial agonists or antagonist were administered via the subcutaneous route immediatelv after X-irradiation (i.e. approximately 25 minutes before the onset of emesis). When investigating the effects of the A1 receptor antagonist, DPCPX, on the partial agonist N-(3-fluoro4-hydroxy-phenyl)-5′-O-methyl-adenosine, either both compounds were administered simultaneously immediately after X-irradiation, or the DPCPX was given as a 15 minute pre-treatment.

The next assay has as its system cisplatin-induced emesis. Kind of assay: Cisplatin-induced emesis in the conscious ferret. The conditions noted are these: cisplatin 200 mg m-2 i.p., 1 mg kg-1 s.c. after first emetic episode, n=2. Here is the method: For all the experiments. adult male ferrets, body weight range 1-1.5 kg, were used. Emesis was induced by X-irradiation, morphine and cisplatin. The ferrets were weighted and measured for the calculation of body surface area on the day before the experiment. On the day of the experiment each ferret received an intraperitoneal dose of cisplatin (200 mg m^−2).

Another assay relates to morphine-induced emesis. Kind of assay: Morphine-induced emesis in the conscious ferret. The following applies: morphine 0.5 mg kg-1 s.c., 1 mg kg-1 s.c. 15 minutes before morphine, n=2.

Turning to `COC[C@H]1O[C@@H](n2cnc3c(Nc4ccc(O)cc4)ncnc32)[C@H](O)[C@@H]1O` [N-(4-hydroxyphenyl)-5′-O-methyl-adenosine], in the assay on radiation-induced emesis, the “effect on radiation-induced emesis (in words)” value was “completely inhibited emesis”.
As for `COC[C@H]1O[C@@H](n2cnc3c(Nc4ccc(O)c(F)c4)ncnc32)[C@H](O)[C@@H]1O` [N-(3-fluoro-4-hydroxyphenyl)-5′-O-methyl-adenosine], the “% inhibition of retching” value worked out at 100% with radiation-induced emesis (2Gy whole body X-irradiation, 1.0 mg kg-1 s.c. immediately after irradiation, observed 2 hours, n=2); 100% with cisplatin-induced emesis (1h); 67% with cisplatin-induced emesis (2h); 43% with cisplatin-induced emesis (7h); 100% with morphine-induced emesis (1h); 100% in the assay on morphine-induced emesis (2h). The “anti-emetic effect with DPCPX, animals affected (in words)” value in the assay on radiation-induced emesis (DPCPX 3 mg kg-1 s.c., 15 minute pre-treatment) is reported as “anti-emetic effect in both animals was reduced”; with radiation-induced emesis (DPCPX 1 mgkg-1 s.c. administered simultaneously), “anti-emetic effect in only one of the two animals tested was reduced”. Further, the “reversal of the anti-emetic effect by the A1 receptor antagonist DPCPX (in words)” value with radiation-induced emesis (X-irradiation, addition of DPCPX) is given as “partially reversed”. Also, the “effect on radiation-induced emesis (in words)” value in the assay on radiation-induced emesis is reported as “completely inhibited emesis”.
